Results published in patent publication US20040136926A1, “Intra-oral drug delivery system” (priority 2002, published 2004).
Where a SMILES comes first, the peptide text is derived from it. Bridges are numbered along the chain shown (N, C = ends). Roman numbers before positions name the chains, in order. Where no end group is shown, it is not given here. [ ]: non-standard residue; d: D form. pS = N[C@@H](COP(=O)(O)O)C(=O)O

Tests used:
[1] = test system: Actinobacillus actinomycetemcomitans; assay: Bactericidal activity of hybrid adsorbed HAP beads, fluorescent probes (membrane damage); format: cell-based; details: hybrid adsorbed HAP surface, as a function of time
Procedure: (§1) The fungicidal and bactericidal activity of the hybrid adsorbed HAP beads was determined using fluorescent probes. The increase in fluorescence as a function of microbial membrane damage was monitored. […] Candida albicans and Actinobacillus actinomycetemcomitans were used as the fungal and bacterial organisms, respectively.

Candida albicans = assay: Fungicidal activity of hybrid adsorbed HAP beads, fluorescent probes (membrane damage); format: cell-based; details: hybrid adsorbed HAP surface, as a function of time
Procedure: as §1

[2] = Peptide adsorption to hydroxyapatite (HAP) beads; format: binding; details: for K × 10^−5 (affinity coefficient) / N × 10^6 (adsorption parameter): adsorption to HAP, C/Q = 1/KN + C/N
Source text: The extent to which the hybrid molecule gets adsorbed was examined using hydroxyapatite (HAP) beads as described previously (Raj, et al., supra, 1992).

[3] = literature (Raj, et al., 1992); cited from earlier work

| Molecule | Microbial membrane damage (increase in fluorescence) vs control HAP [1] | Microbial membrane damage (increase in fluorescence) vs control HAP (Candida albicans) | K × 10^−5 (affinity coefficient) [2] [liter mol^−1] | N × 10^6 (adsorption parameter) [2] [mol m^−2] | Affinity for HAP (in words) ([2]; hydroxyapatite beads) | Affinity for HAP compared with whole statherin [3] |
| --- | --- | --- | --- | --- | --- | --- |
| CC[C@H](C)[C@@H]1NC(=O)[C@H](CCCNC(=N)N)NC(=O)[C@@H](NC(=O)[C@H](CC(C)C)NC(=O)[C@@H](N)CCCNC(=N)N)CSSC[C@@H](C(=O)N[C@@H](CCCNC(=N)N)C(=O)OC[C@H](NC(=O)[C@H](CC(=O)O)NC(=O)[C@H](CC(=O)O)NC(=O)[C@H](CC(=O)O)NC(=O)[C@H](CCC(=O)O)NC(=O)[C@@H](N)CCC(=O)O)C(=O)O)NC(=O)[C@H](C(C)C)NC(=O)[C@H](CCCNC(=N)N)NC(=O)[C@H]([C@@H](C)CC)NC(=O)[C@H](C(C)C)NC(=O)[C@H](C(C)C)NC1=O [Hybrid] (I: H-RLCRIVVIRVCR / II: H-EEDDDS-OH; disulfide I:3-I:11; ester I:C-II:6; N-terminus assumed) | significantly caused microbial membrane damage | significantly caused microbial membrane damage | 10.8 ± 1.8 | 1.6 ± 0.2 | quite comparable to salivary statherin |  |
| D-D-D-E-E-K-F-L-R-R-I-G-R-F-G (DDDEEKFLRRIGRFG) [SNA15, Analog of SN15] |  |  |  |  |  | higher affinity for HAP than the whole molecule |
| D-Sp-Sp-E-E-K-F-L-R-R-I-G-R-F-G (D[pS][pS]EEKFLRRIGRFG; UniProt P02808 20-34, looked up, fragment) [SN15, Amino-terminal 15-residue fragment of statherin] |  |  |  |  |  | higher affinity for HAP than the whole molecule |
| D-Sp-Sp-EEKFLRRIGRFGYGYGPYQPVPEQPLYPQPYQPQYQQYTF (D[pS][pS]EEKFLRRIGRFGYGYGPYQPVPEQPLYPQPYQPQYQQYTF; UniProt P02808 20-62, looked up) [Statherin, Salivary phosphorylated polypeptide, reference compound] |  |  | 11.1 ± 2.0 | 0.9 ± 0.05 |  |  |
